What was measured:
Nitric oxide synthase 3 = target: T1, Nitric oxide synthase 3 (Bos taurus, UniProt P29473); assay: Inhibition of bovine recombinant eNOS overexpressed in Escherichia coli using L-arginine as substrate assessed as formation of NO-hemoglobin complex measured up to 180 seconds by hemoglobin capture assay
T1 sequence (P29473 whole entry): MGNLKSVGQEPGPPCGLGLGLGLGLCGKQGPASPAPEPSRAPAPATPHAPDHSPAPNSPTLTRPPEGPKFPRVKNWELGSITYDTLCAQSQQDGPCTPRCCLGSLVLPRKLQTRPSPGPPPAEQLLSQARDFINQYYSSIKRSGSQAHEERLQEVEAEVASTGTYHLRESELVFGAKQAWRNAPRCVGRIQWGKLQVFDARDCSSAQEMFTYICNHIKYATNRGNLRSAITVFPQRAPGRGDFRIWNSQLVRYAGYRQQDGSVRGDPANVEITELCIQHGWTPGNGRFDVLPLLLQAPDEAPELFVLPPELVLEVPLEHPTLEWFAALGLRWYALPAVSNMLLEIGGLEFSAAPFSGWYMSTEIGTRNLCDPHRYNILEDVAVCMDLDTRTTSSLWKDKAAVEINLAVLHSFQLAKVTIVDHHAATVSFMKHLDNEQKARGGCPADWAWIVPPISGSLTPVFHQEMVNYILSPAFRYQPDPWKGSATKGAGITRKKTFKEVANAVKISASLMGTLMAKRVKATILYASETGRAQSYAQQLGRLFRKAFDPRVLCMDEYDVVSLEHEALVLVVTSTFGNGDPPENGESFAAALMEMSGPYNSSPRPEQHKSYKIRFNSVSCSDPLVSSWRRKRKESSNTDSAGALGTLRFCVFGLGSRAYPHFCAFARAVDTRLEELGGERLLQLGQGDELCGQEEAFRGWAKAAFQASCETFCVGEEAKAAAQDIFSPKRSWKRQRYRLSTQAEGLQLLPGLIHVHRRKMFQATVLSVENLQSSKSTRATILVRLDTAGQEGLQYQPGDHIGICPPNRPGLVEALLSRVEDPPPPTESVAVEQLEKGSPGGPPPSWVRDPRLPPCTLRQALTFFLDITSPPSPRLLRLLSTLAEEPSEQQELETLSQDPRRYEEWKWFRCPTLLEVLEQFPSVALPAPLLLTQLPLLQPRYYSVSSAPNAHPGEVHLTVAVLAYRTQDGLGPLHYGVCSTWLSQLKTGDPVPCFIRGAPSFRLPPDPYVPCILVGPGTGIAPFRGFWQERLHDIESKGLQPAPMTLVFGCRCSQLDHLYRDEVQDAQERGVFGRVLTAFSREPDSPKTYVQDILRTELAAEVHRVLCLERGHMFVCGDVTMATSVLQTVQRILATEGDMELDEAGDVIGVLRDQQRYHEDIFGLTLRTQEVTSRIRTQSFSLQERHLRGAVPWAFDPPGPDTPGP

[1] = target: T2, Nitric oxide synthase, inducible (Mus musculus, UniProt P29477); assay: Inhibition of mouse recombinant iNOS overexpressed in Escherichia coli using L-arginine as substrate assessed as formation of NO-hemoglobin complex measured up to 180 seconds by hemoglobin capture assay
T2 sequence (P29477 whole entry): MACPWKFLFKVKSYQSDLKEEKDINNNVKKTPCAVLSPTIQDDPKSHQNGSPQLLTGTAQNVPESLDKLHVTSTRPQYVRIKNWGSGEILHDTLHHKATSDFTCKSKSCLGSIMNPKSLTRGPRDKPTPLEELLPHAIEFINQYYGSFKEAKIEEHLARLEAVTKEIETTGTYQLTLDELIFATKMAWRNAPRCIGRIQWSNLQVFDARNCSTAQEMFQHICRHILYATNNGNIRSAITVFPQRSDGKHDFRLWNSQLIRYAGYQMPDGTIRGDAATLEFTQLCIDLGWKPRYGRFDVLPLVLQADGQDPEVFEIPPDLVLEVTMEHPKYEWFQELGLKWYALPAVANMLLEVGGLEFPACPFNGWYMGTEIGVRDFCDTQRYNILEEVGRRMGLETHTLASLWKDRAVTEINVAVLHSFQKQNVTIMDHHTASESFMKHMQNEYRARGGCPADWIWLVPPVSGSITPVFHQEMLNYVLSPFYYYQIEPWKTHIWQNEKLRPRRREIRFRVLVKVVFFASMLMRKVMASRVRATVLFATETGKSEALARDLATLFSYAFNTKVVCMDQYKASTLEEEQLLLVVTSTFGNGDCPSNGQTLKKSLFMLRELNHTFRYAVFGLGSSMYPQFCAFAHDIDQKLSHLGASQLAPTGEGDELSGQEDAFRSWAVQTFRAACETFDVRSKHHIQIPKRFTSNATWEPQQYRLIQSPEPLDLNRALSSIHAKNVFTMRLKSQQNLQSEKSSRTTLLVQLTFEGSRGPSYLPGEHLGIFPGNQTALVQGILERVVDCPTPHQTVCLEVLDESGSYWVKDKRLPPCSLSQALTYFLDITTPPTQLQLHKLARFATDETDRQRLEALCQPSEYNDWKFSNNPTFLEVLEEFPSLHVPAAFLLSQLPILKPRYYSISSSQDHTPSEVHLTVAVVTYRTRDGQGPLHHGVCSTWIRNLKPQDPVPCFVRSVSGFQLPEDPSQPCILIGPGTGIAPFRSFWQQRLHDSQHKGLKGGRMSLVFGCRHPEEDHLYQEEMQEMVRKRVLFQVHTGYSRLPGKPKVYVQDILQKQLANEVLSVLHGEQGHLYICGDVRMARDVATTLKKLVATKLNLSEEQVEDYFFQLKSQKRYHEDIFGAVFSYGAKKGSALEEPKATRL

Nitric oxide synthase 1 = Nitric oxide synthase 1 (Rattus norvegicus, UniProt P29476); assay: Inhibition of rat recombinant nNOS overexpressed in Escherichia coli using L-arginine as substrate assessed as formation of NO-hemoglobin complex measured up to 180 seconds by hemoglobin capture assay
Nitric oxide synthase 1, sequence (P29476 whole entry): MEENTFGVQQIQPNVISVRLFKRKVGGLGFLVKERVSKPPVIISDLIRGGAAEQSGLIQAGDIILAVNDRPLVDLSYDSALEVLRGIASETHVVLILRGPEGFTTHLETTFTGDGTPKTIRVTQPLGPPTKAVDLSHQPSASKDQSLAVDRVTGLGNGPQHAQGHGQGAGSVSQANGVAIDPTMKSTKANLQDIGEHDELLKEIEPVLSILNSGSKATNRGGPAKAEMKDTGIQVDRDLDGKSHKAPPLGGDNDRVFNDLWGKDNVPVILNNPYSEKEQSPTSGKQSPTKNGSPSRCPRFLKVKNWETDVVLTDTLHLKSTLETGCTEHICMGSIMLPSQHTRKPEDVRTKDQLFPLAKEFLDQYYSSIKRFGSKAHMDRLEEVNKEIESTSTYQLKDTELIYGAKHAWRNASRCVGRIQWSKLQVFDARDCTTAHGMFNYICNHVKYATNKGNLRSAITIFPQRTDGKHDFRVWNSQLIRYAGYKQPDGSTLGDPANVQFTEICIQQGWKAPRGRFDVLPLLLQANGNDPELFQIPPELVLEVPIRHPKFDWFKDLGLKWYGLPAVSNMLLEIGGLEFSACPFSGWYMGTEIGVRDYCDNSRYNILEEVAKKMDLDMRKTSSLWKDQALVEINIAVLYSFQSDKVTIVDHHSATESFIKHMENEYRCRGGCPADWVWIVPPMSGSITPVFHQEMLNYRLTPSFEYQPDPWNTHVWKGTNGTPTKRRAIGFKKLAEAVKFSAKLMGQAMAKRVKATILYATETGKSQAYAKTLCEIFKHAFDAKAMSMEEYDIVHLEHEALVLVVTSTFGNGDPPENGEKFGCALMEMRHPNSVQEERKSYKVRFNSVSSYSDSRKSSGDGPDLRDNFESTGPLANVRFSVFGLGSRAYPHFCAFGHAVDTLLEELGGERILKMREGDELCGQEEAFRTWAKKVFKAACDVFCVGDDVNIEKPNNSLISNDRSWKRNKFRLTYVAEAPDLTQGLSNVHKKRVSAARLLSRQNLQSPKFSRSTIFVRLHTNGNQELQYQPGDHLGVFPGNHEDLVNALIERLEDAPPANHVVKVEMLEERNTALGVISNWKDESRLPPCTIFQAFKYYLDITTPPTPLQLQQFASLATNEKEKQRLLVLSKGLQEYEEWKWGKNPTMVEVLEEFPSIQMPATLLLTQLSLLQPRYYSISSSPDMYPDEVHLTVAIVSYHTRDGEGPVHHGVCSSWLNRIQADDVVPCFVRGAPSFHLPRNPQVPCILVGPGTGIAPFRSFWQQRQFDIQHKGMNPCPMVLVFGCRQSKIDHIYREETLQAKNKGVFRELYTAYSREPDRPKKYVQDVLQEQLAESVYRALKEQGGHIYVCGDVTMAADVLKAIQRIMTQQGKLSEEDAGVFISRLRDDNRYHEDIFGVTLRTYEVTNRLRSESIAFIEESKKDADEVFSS

Ki (Nitric oxide synthase 3): 6.73 µM | Ki [1]: 2.87 µM | Ki (Nitric oxide synthase 1): 0.0097 µM
SMILES: Cc1cc(N)nc(COC[C@H]2C[C@H](OCc3cc(C)cc(N)n3)CN2)c1

Source: ChEMBL document CHEMBL3108683, “An Accessible Chiral Linker to Enhance Potency and Selectivity of Neuronal Nitric Oxide Synthase Inhibitors” (ACS Med Chem Lett, 2014)
